Measurements published in patent publication US20220265644A1, “FIXED DOSE COMBINATION DRUG FOR THE TREATMENT OF MALARIA” (priority 2020, published 2022).

Tests used:
[1] = tested on: early ring stages from artemisinin-resistant and artemisinin-sensitive parasites (P. falciparum); test: Ring Stage Assay (RSA) as per WHO's recommendation; format: cell-based; settings: at 700 nM
[2] = tested on: P. vivax; test: Synriam Phase III, N=317, randomized, open label, multi-centric, uncomplicated P. vivax malaria; format: in vivo; settings: Adults, Children >12 - 65 Y
[3] = tested on: P. vivax; test: Synriam Phase III, N=164, randomized, open label, multi-centric, uncomplicated P. vivax malaria; format: in vivo; settings: Children 6 months - 12 Y

| Compound | cross-resistance to DHA [1] | activity against early ring stages ([1]; artemisinin-resistant and artemisinin-sensitive parasites) | Proportion of aparasitemic & afebrile patients at 72 h (%) ITT ([2]; 72 h, ITT) [%] | Proportion of aparasitemic & afebrile patients at 72 h (%) PP ([2]; 72 h, PP) [%] | FCT Median (h) ([2]; India) [vs. 24 h] | PCT Median ([2]; India) [h] | Proportion of aparasitemic & afebrile patients at 72 h (%) ITT ([3]; 72 h, ITT) [%] | Proportion of aparasitemic & afebrile patients at 72 h (%) PP ([3]; 72 h, PP) | FCT Median ([3]; India) [h] | PCT Median ([3]; India) [h] |
| --- | --- | --- | --- | --- | --- | --- | --- | --- | --- | --- |
| Arterolane | no cross-resistance to DHA | extremely active |  |  |  |  |  |  |  |  |
| CCN(CC)CCCC(C)Nc1ccnc2cc(Cl)ccc12 (stereo not shown) [Chloroquine] |  |  | 98.7 | 99.3 | 24 | 26 | 100 | PP: 100 vs. 100% | 18 | 24 |
